Data reported in ChEMBL document CHEMBL1139288, “A simple synthesis of four stereoisomers of roseoside and their inhibitory activity on leukotriene release from mice bone marrow-derived cultured mast cells” (2009).

Assay: Inhibition of leukotriene release in ICR mouse BMCMC […] after 6 hrs by ELISA
Assay type: functional

| Compound | inhibition (INH) |
| --- | --- |
| CC1=CC(=O)CC(C)(C)[C@]1(O)/C=C/[C@@H](C)O[C@@H]1O[C@H](CO)[C@@H](O)[C@H](O)[C@H]1O | 22.9% |
| CC1=CC(=O)CC(C)(C)[C@]1(O)/C=C/[C@H](C)O[C@@H]1O[C@H](CO)[C@@H](O)[C@H](O)[C@H]1O | 36.7% |
| CC1=CC(=O)CC(C)(C)[C@@]1(O)/C=C/[C@@H](C)O[C@@H]1O[C@H](CO)[C@@H](O)[C@H](O)[C@H]1O [6S,9R-ROSEOSIDE] | 67.4% |
| CC1=CC(=O)CC(C)(C)[C@@]1(O)/C=C/[C@H](C)O[C@@H]1O[C@H](CO)[C@@H](O)[C@H](O)[C@H]1O [6S,9S-ROSEOSIDE] | 70.3% |
